Assay results: ChEMBL document CHEMBL4477225, “Development of a cell viability assay to assess drug metabolite structure-toxicity relationships” (Bioorg Med Chem Lett, 2016)

Experiments:
Format in all cases: ADME, cell-based
Details in all cases: recombinant enzyme
Cytochrome P450 3A4 [1] = molecular target: T1, Cytochrome P450 3A4 (Homo sapiens, UniProt P08684); assay: (§1) Drug activation in human Hep3B cells assessed as human CYP3A4-mediated drug metabolism-induced cytotoxicity measured as decrease in cell viability at 22.3 uM pre-incubated with BSO for 18 hrs followed by incubation with compound for 3 hrs in presence of NADPH measured after 24 hrs in absence of compound, CYP3A4 and NADPH by cell titer-glo luminescence assay relative to BSO alone
Cytochrome P450 2D6 [2] = molecular target: T2, Cytochrome P450 2D6 (Homo sapiens, UniProt P10635); assay: as §1, with “CYP2D6-mediated” for “CYP3A4-mediated”, “17.6” for “22.3”
Cytochrome P450 2C9 [3] = molecular target: T3, Cytochrome P450 2C9 (Homo sapiens, UniProt P11712); assay: as §1, with “CYP2C9-mediated” for “CYP3A4-mediated”, “39” for “22.3”
Cytochrome P450 3A4 [4] = molecular target: T1, Cytochrome P450 3A4; assay: as §1, with “154.5” for “22.3”
Cytochrome P450 2D6 [5] = molecular target: T2, Cytochrome P450 2D6; assay: as §1, with “CYP2D6-mediated” for “CYP3A4-mediated”, “188.9” for “22.3”
Cytochrome P450 2C9 [6] = molecular target: T3, Cytochrome P450 2C9; assay: as §1, with “CYP2C9-mediated” for “CYP3A4-mediated”, “150” for “22.3”
Cytochrome P450 3A4 [7] = molecular target: T1, Cytochrome P450 3A4; assay: as §1, with “29.6” for “22.3”
Cytochrome P450 2D6 [8] = molecular target: T2, Cytochrome P450 2D6; assay: as §1, with “CYP2D6-mediated” for “CYP3A4-mediated”, “79.2” for “22.3”
Cytochrome P450 2C9 [9] = molecular target: T3, Cytochrome P450 2C9; assay: as §1, with “CYP2C9-mediated” for “CYP3A4-mediated”, “49.7” for “22.3”
Cytochrome P450 3A4 [10] = molecular target: T1, Cytochrome P450 3A4; assay: as §1, with “20.4” for “22.3”
Cytochrome P450 2D6 [11] = molecular target: T2, Cytochrome P450 2D6; assay: as §1, with “CYP2D6-mediated” for “CYP3A4-mediated”, “27.8” for “22.3”
Cytochrome P450 2C9 [12] = molecular target: T3, Cytochrome P450 2C9; assay: as §1, with “CYP2C9-mediated” for “CYP3A4-mediated”, “136.1” for “22.3”
Cytochrome P450 2D6 [13] = molecular target: T2, Cytochrome P450 2D6; assay: as §1, with “CYP2D6-mediated” for “CYP3A4-mediated”, “13” for “22.3”
Cytochrome P450 2C9 [14] = molecular target: T3, Cytochrome P450 2C9; assay: as §1, with “CYP2C9-mediated” for “CYP3A4-mediated”, “9.1” for “22.3”
Cytochrome P450 3A4 [15] = molecular target: T1, Cytochrome P450 3A4; assay: as §1, with “7.6” for “22.3”
Cytochrome P450 2D6 [16] = molecular target: T2, Cytochrome P450 2D6; assay: as §1, with “CYP2D6-mediated” for “CYP3A4-mediated”, “12.2” for “22.3”
Cytochrome P450 2C9 [17] = molecular target: T3, Cytochrome P450 2C9; assay: as §1, with “CYP2C9-mediated” for “CYP3A4-mediated”, “9.7” for “22.3”
Cytochrome P450 3A4 [18] = molecular target: T1, Cytochrome P450 3A4; assay: as §1, with “53.7” for “22.3”
Cytochrome P450 2D6 [19] = molecular target: T2, Cytochrome P450 2D6; assay: as §1, with “CYP2D6-mediated” for “CYP3A4-mediated”, “2.1” for “22.3”
Cytochrome P450 2C9 [20] = molecular target: T3, Cytochrome P450 2C9; assay: as §1, with “CYP2C9-mediated” for “CYP3A4-mediated”, “452.5” for “22.3”
Cytochrome P450 3A4 [21] = molecular target: T1, Cytochrome P450 3A4; assay: as §1, with “70.3” for “22.3”
Cytochrome P450 2D6 [22] = molecular target: T2, Cytochrome P450 2D6; assay: as §1, with “CYP2D6-mediated” for “CYP3A4-mediated”, “52.1” for “22.3”
Cytochrome P450 2C9 [23] = molecular target: T3, Cytochrome P450 2C9; assay: as §1, with “CYP2C9-mediated” for “CYP3A4-mediated”, “88.3” for “22.3”

T2 sequence (P10635 whole entry): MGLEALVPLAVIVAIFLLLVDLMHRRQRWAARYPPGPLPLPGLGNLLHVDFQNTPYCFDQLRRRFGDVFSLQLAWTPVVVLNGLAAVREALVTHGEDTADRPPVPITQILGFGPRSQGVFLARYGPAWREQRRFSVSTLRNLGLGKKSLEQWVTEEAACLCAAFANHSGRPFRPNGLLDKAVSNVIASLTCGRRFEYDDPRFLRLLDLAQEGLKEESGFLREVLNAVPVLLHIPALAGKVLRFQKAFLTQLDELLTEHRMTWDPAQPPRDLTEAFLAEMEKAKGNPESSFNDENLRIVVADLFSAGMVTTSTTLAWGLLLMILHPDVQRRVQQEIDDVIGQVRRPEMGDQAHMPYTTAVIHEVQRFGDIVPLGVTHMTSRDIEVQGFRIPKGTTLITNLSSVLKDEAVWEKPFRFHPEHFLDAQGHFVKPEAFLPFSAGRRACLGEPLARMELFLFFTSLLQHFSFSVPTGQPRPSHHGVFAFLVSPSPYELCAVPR
T1 sequence (P08684 whole entry): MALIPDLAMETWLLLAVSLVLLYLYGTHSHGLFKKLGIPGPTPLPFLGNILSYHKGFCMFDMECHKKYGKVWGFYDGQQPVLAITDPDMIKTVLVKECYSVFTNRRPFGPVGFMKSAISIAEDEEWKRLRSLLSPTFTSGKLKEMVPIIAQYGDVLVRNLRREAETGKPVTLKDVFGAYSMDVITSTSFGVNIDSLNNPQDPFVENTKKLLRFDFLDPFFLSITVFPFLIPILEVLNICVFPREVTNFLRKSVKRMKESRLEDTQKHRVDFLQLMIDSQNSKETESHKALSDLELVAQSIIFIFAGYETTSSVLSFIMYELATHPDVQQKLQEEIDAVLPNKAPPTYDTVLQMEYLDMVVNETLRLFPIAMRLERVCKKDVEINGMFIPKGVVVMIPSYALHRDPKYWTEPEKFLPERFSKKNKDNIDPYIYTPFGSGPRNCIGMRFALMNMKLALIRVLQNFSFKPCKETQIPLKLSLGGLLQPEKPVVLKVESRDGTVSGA
T3 sequence (P11712 whole entry): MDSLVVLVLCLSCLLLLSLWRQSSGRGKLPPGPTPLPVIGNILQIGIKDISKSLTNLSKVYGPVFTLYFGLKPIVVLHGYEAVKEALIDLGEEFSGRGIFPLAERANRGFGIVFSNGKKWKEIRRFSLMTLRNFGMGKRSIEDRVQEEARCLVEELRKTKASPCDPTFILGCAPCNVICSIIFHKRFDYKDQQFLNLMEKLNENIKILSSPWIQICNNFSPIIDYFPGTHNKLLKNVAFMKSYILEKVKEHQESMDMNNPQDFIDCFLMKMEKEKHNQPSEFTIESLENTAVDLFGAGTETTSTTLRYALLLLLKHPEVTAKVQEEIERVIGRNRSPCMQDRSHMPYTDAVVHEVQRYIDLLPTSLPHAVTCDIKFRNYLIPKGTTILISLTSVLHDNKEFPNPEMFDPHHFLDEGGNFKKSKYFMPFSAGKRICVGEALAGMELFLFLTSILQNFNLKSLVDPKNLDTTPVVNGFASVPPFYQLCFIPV

## O=C(c1ccccc1)c1ccc2n1CCC2C(=O)O (stereo not drawn) [KETOROLAC]
Cytochrome P450 3A4 [1]
  fold change (FC): 0.6
Cytochrome P450 2D6 [2]
  fold change (FC): 0.8
Cytochrome P450 2C9 [3]
  fold change (FC): 0.4

## CS(=O)(=O)CCNCc1ccc(-c2ccc3ncnc(Nc4ccc(OCc5cccc(F)c5)c(Cl)c4)c3c2)o1 [LAPATINIB]
Cytochrome P450 3A4 [4]
  fold change (FC): 0.3
Cytochrome P450 2D6 [5]
  fold change (FC): 0.2
Cytochrome P450 2C9 [6]
  fold change (FC): 0.3

## CC(C)(O)c1ccccc1CC[C@@H](SCC1(CC(=O)O)CC1)c1cccc(/C=C/c2ccc3ccc(Cl)cc3n2)c1 [MONTELUKAST]
Cytochrome P450 3A4 [7]
  fold change (FC): 1.2
Cytochrome P450 2D6 [8]
  fold change (FC): 0.5
Cytochrome P450 2C9 [9]
  fold change (FC): 0.7

## CCc1nn(CCCN2CCN(c3cccc(Cl)c3)CC2)c(=O)n1CCOc1ccccc1 [NEFAZODONE]
Cytochrome P450 3A4 [10]
  fold change (FC): 4.1
Cytochrome P450 2D6 [11]
  fold change (FC): 3
Cytochrome P450 2C9 [12]
  fold change (FC): 0.6

## Fc1ccc([C@@H]2CCNC[C@H]2COc2ccc3c(c2)OCO3)cc1 [PAROXETINE]
Cytochrome P450 2D6 [13]
  fold change (FC): 0.4
Cytochrome P450 2C9 [14]
  fold change (FC): 0.6

## C1CCC(C(CC2CCCCN2)C2CCCCC2)CC1 (stereo not drawn) [PERHEXILINE]
Cytochrome P450 3A4 [15]
  fold change (FC): 0.7
Cytochrome P450 2D6 [16]
  fold change (FC): 0.4
Cytochrome P450 2C9 [17]
  fold change (FC): 0.5

## CC(C)NCC(O)COc1cccc2ccccc12 (stereo not drawn) [PROPRANOLOL]
Cytochrome P450 3A4 [18]
  fold change (FC): 4.7
Cytochrome P450 2D6 [19]
  fold change (FC): 120.7
Cytochrome P450 2C9 [20]
  fold change (FC): 0.6

## C=CC[C@@H]1/C=C(\C)C[C@H](C)C[C@H](OC)[C@H]2O[C@@](O)(C(=O)C(=O)N3CCCC[C@H]3C(=O)O[C@H](/C(C)=C/[C@@H]3CC[C@@H](O)[C@H](OC)C3)[C@H](C)[C@@H](O)CC1=O)[C@H](C)C[C@@H]2OC [TACROLIMUS ANHYDROUS]
Cytochrome P450 3A4 [21]
  fold change (FC): 1.6
Cytochrome P450 2D6 [22]
  fold change (FC): 2.2
Cytochrome P450 2C9 [23]
  fold change (FC): 1.3
